≈ marks a conversion by molar mass, not a printed value. Read-outs that look alike come from different tables or passages of the source.
Columns and labels:
Assay in all cases: liquid turbidimetric microtiter MIC, broth media
Assay type in all cases: cell-based
[1] = test system: Staphylococcus epidermidis MB 5414
Text: (§1) The antibacterial activities of the compounds of Examples 8 and 10 against a panel of aerobic Gram positive and negative bacteria is shown in Table I. Similarly, the antibacterial activities of the compounds of Examples 89, 94, 96, and 97 are presented in Table II. The assay employs a liquid turbidimetric microtiter method for the determination of the minimum inhibitory concentration (MIC) in broth media. […] The MIC is generally not an absolute value but rather a concentration range that falls within a two-fold dilution limit. Generally twelve two-fold dilutions of the test compound are employed with the initial concentration set at 128 mcg/ml.

[2] = test system: Streptococcus pyogenes MB 2874
Text: as §1

[3] = test system: Staphylococcus aureus MB 2865
Text: as §1

[4] = test system: Enterobacter cloacae CL 4298
Text: as §1

[5] = test system: Haemophilus influenzae AT 43163
Text: as §1

[6] = test system: Streptococcus pneumoniae CL 2883
Text: as §1

[7] = test system: Haemophilus influenzae MB 5363
Text: as §1

[8] = test system: Escherichia coli MB 2884
Text: as §1

[9] = test system: Klebsiella pneumoniae MB 4005
Text: as §1

[10] = test system: Enterococcus faecalis MB 5407
Text: as §1

[11] = test system: Streptococcus pyogenes MB 54061; details: MB54061
Text: as §1

[12] = test system: Pseudomonas stutzeri MB 1231; details: Stutzerimonas stutzeri, MB1231
Text: as §1

[13] = test system: Streptococcus agalactiae CL 1343; details: CL1343
Text: as §1

[14] = test system: Staphylococcus haemolyticus MB 5412; details: MB5412
Text: as §1

[15] = test system: Escherichia coli MB 4926; details: MB4926
Text: as §1

[16] = test system: Streptococcus viridans CL 2943; details: CL2943
Text: as §1

[17] = test system: Enterococcus faecium MB 5416; details: MB5416
Text: as §1

Compound	MIC [1]	MIC [2]	MIC [3]	MIC [4]	MIC [5]	MIC [6]	MIC [7]	MIC [8]	MIC [9]	MIC [10]	MIC ([8]; MB2884, read-out: MIC)	MIC ([1]; MB5414, read-out: MIC)	MIC ([2]; MB2874, read-out: MIC)	MIC ([3]; MB2865, read-out: MIC)	MIC ([6]; CL2883, read-out: MIC)	MIC ([9]; MB4005, read-out: MIC)	MIC ([10]; MB5407, read-out: MIC)	other results
4"-Deoxy-4"-amino-9-deoxo-8a-aza-8a-methyl-8a-homoerythromycin A [Example 94]	0.5 µg/mL	≤ 0.06 µg/mL	1 µg/mL	≤ 0.06 µg/mL	0.25 µg/mL	≤ 0.06 µg/mL	0.5 µg/mL	0.12 µg/mL	0.12 µg/mL	4 µg/mL								
CC[C@H]1OC(=O)[C@H](C)[C@@H](O[C@H]2C[C@@](C)(OC)[C@@H](O)[C@H](C)O2)[C@H](C)[C@@H](O[C@@H]2O[C@H](C)C[C@H](N(C)C)[C@H]2O)[C@](C)(O)C[C@@H](C)C(=O)[C@H](C)[C@@H](O)[C@]1(C)O [Erythromycin A, erythromycin A]	0.12 µg/mL (≈ 0.164 µM)	≤ 0.06 µg/mL	0.12 µg/mL (≈ 0.164 µM)	16 µg/mL (≈ 21.8 µM)	2 µg/mL (≈ 2.73 µM)	≤ 0.06 µg/mL	2 µg/mL (≈ 2.73 µM)		32 µg/mL (≈ 43.6 µM)	1 µg/mL (≈ 1.36 µM)	16 µg/mL (≈ 21.8 µM)							
CC[C@H]1OC(=O)[C@H](C)[C@@H](O[C@H]2C[C@@](C)(OC)[C@@H](O)[C@H](C)O2)[C@H](C)[C@@H](O[C@@H]2O[C@H](C)C[C@H](N(C)C)[C@H]2O)[C@](C)(O)C[C@@H](C)NC[C@H](C)[C@@H](O)[C@]1(C)O [Example 8, 9-Deoxo-8a-aza-8a-homoerythromycin A]											4 µg/mL (≈ 5.44 µM)	1 µg/mL (≈ 1.36 µM)	≤ 0.06 µg/mL	0.5 µg/mL (≈ 0.68 µM)	≤ 0.06 µg/mL	8 µg/mL (≈ 10.9 µM)	8 µg/mL (≈ 10.9 µM)	MIC [11]: 128 µg/mL (≈ 174 µM); MIC [12]: ≤ 0.06 µg/mL; MIC [13]: ≤ 0.06 µg/mL; MIC [14]: 0.5 µg/mL (≈ 0.68 µM); MIC [15]: 2 µg/mL (≈ 2.72 µM); MIC [16]: 8 µg/mL (≈ 10.9 µM); MIC [17]: 0.25 µg/mL (≈ 0.34 µM)
CC[C@H]1OC(=O)[C@H](C)[C@@H](O[C@H]2C[C@@](C)(OC)[C@@H](O)[C@H](C)O2)[C@H](C)[C@@H](O[C@@H]2O[C@H](C)C[C@H](N(C)C)[C@H]2O)[C@](C)(O)C[C@@H](C)N(C)C[C@H](C)[C@@H](O)[C@]1(C)O [Example 10, 9-Deoxo-8a-aza-8a-methyl-8a-homoerythromycin A]											1 µg/mL (≈ 1.34 µM)	1 µg/mL (≈ 1.34 µM)	≤ 0.06 µg/mL	0.5 µg/mL (≈ 0.668 µM)	≤ 0.06 µg/mL	2 µg/mL (≈ 2.67 µM)	4 µg/mL (≈ 5.34 µM)	MIC [11]: 128 µg/mL (≈ 171 µM); MIC [12]: ≤ 0.06 µg/mL; MIC [13]: ≤ 0.06 µg/mL; MIC [14]: 0.5 µg/mL (≈ 0.668 µM); MIC [15]: 0.06 µg/mL (≈ 0.0801 µM); MIC [16]: 1 µg/mL (≈ 1.34 µM); MIC [17]: 0.25 µg/mL (≈ 0.334 µM)
CC[C@H]1OC(=O)[C@H](C)[C@@H](O[C@H]2C[C@@](C)(OC)[C@H](O)[C@H](C)O2)[C@H](C)[C@@H](O[C@@H]2O[C@H](C)C[C@H](N(C)C)[C@H]2O)[C@](C)(O)C[C@@H](C)N(C)C[C@H](C)[C@@H](O)[C@]1(C)O [Example 89, 4"-epi-9-deoxo-8a-aza-8a-methyl-8a-homoerythromycin A]											1 µg/mL (≈ 1.34 µM)	0.25 µg/mL (≈ 0.334 µM)	≤ 0.06 µg/mL	0.5 µg/mL (≈ 0.668 µM)	≤ 0.06 µg/mL	1 µg/mL (≈ 1.34 µM)	1 µg/mL (≈ 1.34 µM)	MIC ([4]; CL4298, read-out: MIC): 0.5 µg/mL (≈ 0.668 µM); MIC ([5]; AT43163, read-out: MIC): 0.5 µg/mL (≈ 0.668 µM); MIC ([7]; MB5363, read-out: MIC): 0.5 µg/mL (≈ 0.668 µM)
CC[C@H]1OC(=O)[C@H](C)[C@@H](O[C@H]2C[C@@](C)(OC)[C@@H](N)[C@H](C)O2)[C@H](C)[C@@H](O[C@@H]2O[C@H](C)C[C@H](N(C)C)[C@H]2O)[C@](C)(O)C[C@@H](C)N(C)C[C@H](C)[C@@H](O)[C@]1(C)O [Example 96, 4"-Deoxy-4"-(S)-amino-9-deoxo-8a-aza-8a-methyl-8a-homoerythromycin A]	0.51 µg/mL (≈ 0.682 µM)	≤ 0.06 µg/mL	1 µg/mL (≈ 1.34 µM)	≤ 0.06 µg/mL	0.25 µg/mL (≈ 0.334 µM)	≤ 0.06 µg/mL	0.25 µg/mL (≈ 0.334 µM)	0.12 µg/mL (≈ 0.16 µM)	0.12 µg/mL (≈ 0.16 µM)	2 µg/mL (≈ 2.67 µM)								
CC[C@H]1OC(=O)[C@H](C)[C@@H](O[C@H]2C[C@@](C)(OC)[C@H](N)[C@H](C)O2)[C@H](C)[C@@H](O[C@@H]2O[C@H](C)C[C@H](N(C)C)[C@H]2O)[C@](C)(O)C[C@@H](C)N(C)C[C@H](C)[C@@H](O)[C@]1(C)O [Example 97, 4"-Deoxy-4"-(R)-amino-9-deoxo-8a-aza-8a-methyl-8a-homoerythromycin A]	0.5 µg/mL (≈ 0.668 µM)	≤ 0.06 µg/mL	1 µg/mL (≈ 1.34 µM)	0.12 µg/mL (≈ 0.16 µM)	0.25 µg/mL (≈ 0.334 µM)	≤ 0.06 µg/mL	0.5 µg/mL (≈ 0.668 µM)	0.25 µg/mL (≈ 0.334 µM)	0.25 µg/mL (≈ 0.334 µM)	2 µg/mL (≈ 2.67 µM)								
